Series [1] concerns panel of 50 receptors, ion channels and transporters. The experiment in a line: Selectivity binding panel of 50 receptors, ion channels and transporters (Eurofins). The settings on record: at 10 μM; any receptor/transporter/ion channel other than the OX1R.
Experimental: These assays were performed by Eurofins (Celles L’Evescault, France).
The target of series [2] is T1, rat OX1R (Rattus norvegicus, UniProt P56718).
T1 sequence (P56718 1-416): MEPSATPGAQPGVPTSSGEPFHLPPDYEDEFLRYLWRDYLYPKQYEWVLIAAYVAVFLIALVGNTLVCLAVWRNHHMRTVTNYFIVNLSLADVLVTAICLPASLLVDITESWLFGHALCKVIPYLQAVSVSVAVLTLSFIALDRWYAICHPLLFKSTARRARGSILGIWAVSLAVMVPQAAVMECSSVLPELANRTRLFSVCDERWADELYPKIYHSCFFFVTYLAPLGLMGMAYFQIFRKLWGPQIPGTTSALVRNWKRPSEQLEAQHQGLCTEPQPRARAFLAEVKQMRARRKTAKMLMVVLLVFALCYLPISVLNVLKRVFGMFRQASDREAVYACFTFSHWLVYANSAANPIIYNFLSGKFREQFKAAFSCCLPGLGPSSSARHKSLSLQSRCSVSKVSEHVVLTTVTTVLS
The experiment in a line: Calcium mobilization functional assay, HEK-293 cells, OX-A EC80. (A change in cytosolic calcium serves as a functional read-out for many receptors and channels.)
Experimental: Stably transfected CHO-K1 cells for the human OX1R or HEK-293 cells for the rat OX1R were used for the in vitro functional assays. […] Since the intracellular calcium response is transient and not consistent with equilibrium assumptions, the assays were performed by giving a standard, EC80 dose of the OX agonist and calculating a pKB from inhibition of the agonist response by a dose range of the antagonists. The cells were plated in black 96 well tissue culture plates with clear bottoms at 50,000 cells/well and grown overnight at 37°C in 5% carbon dioxide (CO2). […] The cell plate was then transferred to the Molecular Devices Fluorometric Imaging Plate Reader (FLIPR) Tetra instrument, which adds the OX agonist and monitors changes in fluorescence which reflect intracellular calcium levels.
(§3) Results were calculated using GraphPad Prism (San Diego, CA, United States) software. Raw data from the FLIPR Tetra was exported as the difference between maximum and minimum fluorescence observed for each well. A non-linear regression was used to determine the agonist EC50 and antagonist IC50 for each plate, then the antagonist KB was calculated according to Cheng and Prusoff ([Cheng and Prusoff, 1973]).

For series [3], the target named is T2, human OX2R (Homo sapiens, UniProt O43614).
T2 sequence (O43614 1-444): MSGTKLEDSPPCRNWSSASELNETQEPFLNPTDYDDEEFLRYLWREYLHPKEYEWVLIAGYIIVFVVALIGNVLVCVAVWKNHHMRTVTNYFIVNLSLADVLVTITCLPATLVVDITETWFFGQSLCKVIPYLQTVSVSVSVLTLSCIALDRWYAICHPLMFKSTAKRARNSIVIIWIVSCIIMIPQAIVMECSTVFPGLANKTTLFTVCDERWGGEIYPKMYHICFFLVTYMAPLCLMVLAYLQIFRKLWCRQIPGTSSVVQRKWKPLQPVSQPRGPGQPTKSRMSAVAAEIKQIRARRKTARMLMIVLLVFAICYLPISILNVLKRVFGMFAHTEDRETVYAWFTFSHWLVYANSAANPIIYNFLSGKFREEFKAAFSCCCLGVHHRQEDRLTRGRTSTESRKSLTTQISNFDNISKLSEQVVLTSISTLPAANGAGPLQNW
The experiment in a line: Calcium mobilization functional assay, PFSK-1 cells, OX-B. In kind it is cell-based.
Experimental: The human OX2R functional assay used PFSK-1 cells which are a human neuroectodermal cell line that innately expresses the OX2R. Since the intracellular calcium response is transient and not consistent with equilibrium assumptions, the assays were performed by giving a standard, EC80 dose of the OX agonist and calculating a pKB from inhibition of the agonist response by a dose range of the antagonists. The cells were plated in black 96 well tissue culture plates with clear bottoms at 50,000 cells/well and grown overnight at 37°C in 5% carbon dioxide (CO2). […] The cell plate was then transferred to the Molecular Devices Fluorometric Imaging Plate Reader (FLIPR) Tetra instrument, which adds the OX agonist and monitors changes in fluorescence which reflect intracellular calcium levels.
as §3

The target of series [4] is T3, OX1R in rat brain (tenia tecta) (Rattus norvegicus, UniProt P56718).
T3 construct: Twenty micron thick tissue sections at the level of the tenia tecta were prepared for autoradiography; from tissue; host or cells: brain sections (tenia tecta) of male Sprague-Dawley rats
T3 sequence (P56718 1-416): T1 sequence (P56718 1-416)
The experiment in a line: Ex vivo OX1R receptor occupancy autoradiography in rat brain (tenia tecta), with plasma bioanalysis. The procedure: (§1) Experiments were performed as previously described ([Dugovic et al., 2009]) in male Sprague-Dawley rats (300–400 g, Charles River Laboratories, San Diego, CA, United States). The animals were euthanized using carbon dioxide and decapitated at different time points after drug administration (n = 3 per time point or dose regimen). Brains were rapidly frozen on powdered dry ice and stored at -80°C before sectioning. Plasma samples were also collected for bioanalysis (LC–MS/MS). Twenty micron thick tissue sections at the level of the tenia tecta were prepared for autoradiography. OX1R radioligand binding autoradiography was determined at room temperature with 5 nM [^3H]SB-674042. Sections were incubated for 10 min to minimize dissociation. Non-specific binding was determined in the presence of 10 μM SB-674042. Ex vivo receptor labeling was expressed as the percentage of receptor labeling in corresponding brain areas (i.e., tenia tecta) of vehicle-treated animals. The percentage of receptor occupancy was plotted against time or dosage using GraphPad Prism (GraphPad Software, San Diego, CA, United States). Percentage of receptor occupancy was also plotted against drug plasma or brain concentration. Pharmacokinetic parameters were analyzed using a non-compartmental model using the software package WinNonlin Version 4.0.1 (Pharsight, Palo Alto, CA, United States).
(§2) In vivo occupancy of the OX1R was assessed by ex vivo receptor binding autoradiography of [^3H]SB-674042 in rat brain tissue sections at the level of the tenia tecta. Time-dependency and dose-dependency were assessed after oral dosing (Figure 2).

Test in series [5]: as above
Particulars: male, Sprague-Dawley, plasma. As for the experimental part:
as §1, §2

This is an account of results in PMC5465257, “Evaluation of JNJ-54717793 a Novel Brain Penetrant Selective Orexin 1 Receptor Antagonist in Two Rat Models of Panic Attack Provocation” (Frontiers in Pharmacology, 2017).

Like-named read-outs stand apart in the source and are kept apart here.

Consider `O=C(c1cccc(F)c1-c1ncccn1)N1[C@@H]2CC[C@H]1[C@H](Nc1cnc(C(F)(F)F)cn1)C2` [JNJ-54717793, (1S,2R,4R)-7-([(3-fluoro-2-pyrimidin-2-ylphenyl)carbonyl]-N-[5-(trifluoromethyl)pyrazin-2-yl]-7-azabicyclo[2.2.1]heptan-2-amine)], for which the “inhibition in selectivity panel” value in series [1] is on record as under 50%. Moreover, the Kb was 35.5 nM in series [2] and 309 nM in series [3]. The “level of OX1R occupancy” value in series [4] (30 mg/kg oral, after the first 6 h) is “negligible”. Also, the receptor occupancy at 30 mg/kg in series [4] (30 mg/kg oral, first 6 h, read-out: level of OX1R occupancy) is over 58%; in series [4] (30 mg/kg oral, observed at 15 min, read-out: maximal OX1R occupancy) it was 87 ± 3%. Also, the 50% effect level in series [4] (oral, 60 min after treatment) (ED50) was put at a dose of 1.3 mg/kg. Moreover, the receptor occupancy at 3 mg/kg in series [4] (oral, reached at 3 mg/kg, 60 min after treatment, read-out: plateau for maximal OX1R occupancy) lay within 80 to 90%. The concentration at 60 min in series [5] (1.3 mg/kg, oral, 95% confidence interval 26 to 277 ng/ml, read-out: plasma exposure corresponding to ED50) is 84 ng/mL; in series [5] (3 mg/kg oral, read-out: plasma concentration at plateau of occupancy), about 311 ng/mL. In series [5] (30 mg/kg oral, 15 min, read-out: plasma concentration at maximal OX1R occupancy), the concentration at 15 min was 3730 ± 440 ng/mL.

As usually defined, the ED50 is the dose at which the effect has come halfway, by size or by number of responders. Low values mean greater potency, high ones weaker potency.
